Source: PubChem BioAssay (NCI)
Values joined by “and” are separate entries in the source; they are usually repeats but may differ in a detail not shown here. Equal entries are not always repeated.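 Following 48 hours of exposure in 96-well plates, responses at five concentrations were used to interpolate endpoints linearly. GI50: concentration for 50% inhibition of growth. TGI marks complete inhibition of growth.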

Tests used:
Assay in all cases: DTP human tumour cell line panel, 48 h
SF-295 CNS = tested on: SF-295 CNS
RXF 393 renal = tested on: RXF 393 renal
SK-MEL-5 melanoma = tested on: SK-MEL-5 melanoma
SK-MEL-2 melanoma = tested on: SK-MEL-2 melanoma
OVCAR-4 ovarian = tested on: OVCAR-4 ovarian
786-0 renal = tested on: 786-0 renal
HOP-92 NSCLC = tested on: HOP-92 NSCLC
NCI-H460 lung = tested on: NCI-H460 lung
COLO 205 colon = tested on: COLO 205 colon
MCF7 breast = tested on: MCF7 breast

Compound	TGI (SF-295 CNS)	TGI (RXF 393 renal)	TGI (SK-MEL-5 melanoma)	TGI (SK-MEL-2 melanoma)	TGI (OVCAR-4 ovarian)	TGI (786-0 renal)	TGI (HOP-92 NSCLC)	TGI (NCI-H460 lung)	TGI (COLO 205 colon)	TGI (MCF7 breast)	GI50 (RXF 393 renal)	GI50 (SK-MEL-2 melanoma)	GI50 (OVCAR-4 ovarian)	GI50 (HOP-92 NSCLC)	GI50 (MCF7 breast)	GI50 (SF-295 CNS)	GI50 (COLO 205 colon)	GI50 (SK-MEL-5 melanoma)	GI50 (786-0 renal)	GI50 (NCI-H460 lung)
O=C1c2ccccc2C2CCC1c1ccccc12 (configuration not stated)	> 100 µM	78 µM	34.1 µM	94 µM	76.1 µM	> 100 µM	72.2 µM	> 100 µM	46.8 µM	–	–	–	–	–	–	–	–	–	–	–
O=C1O/C(=C/c2ccccc2)C(c2ccccc2)=C1O	> 100 µM	70.3 µM	80.9 µM	31.6 µM	> 100 µM	> 100 µM	> 100 µM	–	> 100 µM	> 100 µM	–	–	–	–	–	–	–	–	–	–
N#CC(C(=O)/C(=N\NC(N)=O)C(C#N)c1ccccc1)c1ccccc1 (configuration not stated)	> 100 µM	> 100 µM	–	> 100 µM	> 100 µM	> 100 µM	> 100 µM	> 100 µM	> 100 µM	–	–	–	–	–	–	–	–	–	–	–
Nc1c(Cl)ncnc1NCCCCCCCCCCCCNc1ncnc(Cl)c1N	5.92 µM	8.01 µM	3.88 µM	7.92 µM	> 100 µM	66.1 µM	4.3 µM	10.1 µM	21.9 µM	–	–	–	–	–	–	–	–	–	–	–
C/C=C1\CN2CCc3c([nH]c4ccccc34)C2CC1CCO (configuration not stated)	> 100 µM	> 100 µM	> 100 µM	> 100 µM	> 100 µM	> 100 µM	> 100 µM	> 100 µM	> 100 µM	–	–	–	–	–	–	–	–	–	–	–
COC(=O)[C@@]12CC(C(C)C)[C@H]3CC(C(=O)C=C1OC)[C@H]32 (some centres not stated)	> 100 µM	> 100 µM	> 100 µM	> 100 µM	> 100 µM	> 100 µM	> 100 µM	> 100 µM	> 100 µM	–	–	–	–	–	–	–	–	–	–	–
CC(C)CCCCCCCCCCCCC(=O)NCC(=O)NC1C(O)C(O)C(Nc2ncnc3nc[nH]c23)OC1C(O)CO (configuration not stated)	–	–	–	0.0117 µM and 0.0389 µM and 0.0107 µM	–	0.526 µM	–	–	0.00316 µM and 0.00155 µM and 0.00526 µM	0.394 µM and 0.352 µM	< 0.01 nM	< 1e-05 µM	< 0.01 nM	< 1e-05 µM	0.00287 µM and 0.0113 µM	–	–	–	–	–
CCOc1ccccc1N=Nc1c(-c2ccccc2)nn(C(=O)CC(=O)Nc2cccc(C)c2)c1-c1ccccc1	> 100 µM	> 100 µM	> 100 µM	> 100 µM	> 100 µM	> 100 µM	> 100 µM	> 100 µM	> 100 µM	–	–	–	–	–	–	–	–	–	–	–
O=C1/C(=C/c2ccc(Cl)cc2)CNC/C1=C\c1ccc(Cl)cc1	4.59 µM and 5.8 µM	3 µM and 7.85 µM	22.1 µM and 11.3 µM	28.4 µM and 43.2 µM	–	4.69 µM and 2.77 µM	> 26.2 µM	–	4.25 µM and 8.35 µM	21.2 µM	1640 nM and 3970 nM	4.92 µM and 14.5 µM	1520 nM	–	–	0.532 µM and 2.26 µM	2.61 µM	–	–	–
O=C(c1ccc(Cl)cc1)c1ccc(OCCCOc2ccc(C(=O)c3ccc(Cl)cc3)cc2Cl)c(Cl)c1	> 100 µM	> 100 µM	> 100 µM	> 100 µM	> 100 µM	> 100 µM	> 100 µM	> 100 µM	> 100 µM	–	–	–	–	–	–	–	–	–	–	–
CC(=O)C1=C(O)C=C2Oc3c(C(=O)/C=C/c4cc(Cl)cc(Cl)c4)c(O)c(C)c(O)c3[C@]2(C)C1=O	0.887 µM	1.62 µM	1.05 µM	0.924 µM	7.17 µM	2.32 µM	–	1.77 µM	0.988 µM	1.72 µM	541 nM	0.365 µM	565 nM	–	0.458 µM	0.36 µM	0.408 µM	0.424 µM	0.534 µM	0.528 µM
COC(=O)C1=CC2C=CC(C1C(=O)OC)C1C(C(=O)OC)=C(C(=O)OC)C(C(=O)OC)=C(C(=O)OC)C21OC (configuration not stated)	> 100 µM	> 100 µM	> 100 µM	> 100 µM	> 100 µM	> 100 µM	> 100 µM	> 100 µM	> 100 µM	–	–	–	–	–	–	–	–	–	–	–
NC1=NN(c2ccccc2)C(=O)C1C(=O)C(=O)Nc1ccc(Cl)c(Cl)c1 (configuration not stated)	> 100 µM	> 100 µM	> 100 µM	> 100 µM	> 100 µM	> 100 µM	> 100 µM	> 100 µM	> 100 µM	–	–	–	–	–	–	–	–	–	–	–
CC1NC(=O)C2=C1C(=O)NC(=O)C2 (configuration not stated)	> 100 µM	> 100 µM	> 100 µM	> 100 µM	–	> 100 µM	> 100 µM	> 100 µM	–	> 100 µM	> 100000 nM	> 100 µM	–	> 100 µM	> 100 µM	> 100 µM	–	> 100 µM	> 100 µM	> 100 µM
Cn1c2c(c3c(Cl)nncc31)Cc1ccccc1-2	66.7 µM	80.7 µM	24.9 µM	–	> 100 µM	> 100 µM	43 µM	67.1 µM	50.2 µM	> 100 µM	24500 nM	–	23900 nM	9.47 µM	9.03 µM	17.5 µM	15.3 µM	10.3 µM	23.6 µM	5.28 µM
CCNC(=O)Oc1ccc(/C(=C(/C)Cc2ccc(OC)cc2)c2ccc(OCCN(CC)CC)cc2)cc1	3.25 µM	3.62 µM	2.93 µM	3.62 µM	7.84 µM	2.88 µM	–	3.5 µM	3.82 µM	2.41 µM	1900 nM	1.85 µM	2310 nM	–	0.621 µM	1.66 µM	1.94 µM	1.55 µM	1.39 µM	1.85 µM
CCCCCCCCCCCCOC1C(CNC(=O)C2OC3OC(C)(C)OC3C2NC(=O)CN2CCN(c3ccc(OC)cc3)CC2)OC2OC(C)(C)OC21 (configuration not stated)	18.4 µM	4.44 µM	16.1 µM	23.9 µM	15.8 µM	24 µM	12.2 µM	–	4.82 µM	8.29 µM	2100 nM	11.7 µM	3830 nM	3.17 µM	2.81 µM	5.12 µM	2.26 µM	4.39 µM	11.8 µM	–
CC1C2C=C(O)C(=O)C(C2=O)C1c1ccccc1 (configuration not stated)	> 100 µM	> 100 µM	> 100 µM	> 100 µM	> 100 µM	> 100 µM	> 100 µM	–	> 100 µM	–	–	–	–	–	–	–	–	–	–	–
